This note sets out measurements from patent US8048879B2, “Substituted 4,5,6,7-tetrahydro-isoxazolo[4,5-c]pyridine compounds and use thereof for producing medicaments” (Gruenenthal GmbH, priority 2005, dated 2011).

T1 sequence (P31652 whole entry): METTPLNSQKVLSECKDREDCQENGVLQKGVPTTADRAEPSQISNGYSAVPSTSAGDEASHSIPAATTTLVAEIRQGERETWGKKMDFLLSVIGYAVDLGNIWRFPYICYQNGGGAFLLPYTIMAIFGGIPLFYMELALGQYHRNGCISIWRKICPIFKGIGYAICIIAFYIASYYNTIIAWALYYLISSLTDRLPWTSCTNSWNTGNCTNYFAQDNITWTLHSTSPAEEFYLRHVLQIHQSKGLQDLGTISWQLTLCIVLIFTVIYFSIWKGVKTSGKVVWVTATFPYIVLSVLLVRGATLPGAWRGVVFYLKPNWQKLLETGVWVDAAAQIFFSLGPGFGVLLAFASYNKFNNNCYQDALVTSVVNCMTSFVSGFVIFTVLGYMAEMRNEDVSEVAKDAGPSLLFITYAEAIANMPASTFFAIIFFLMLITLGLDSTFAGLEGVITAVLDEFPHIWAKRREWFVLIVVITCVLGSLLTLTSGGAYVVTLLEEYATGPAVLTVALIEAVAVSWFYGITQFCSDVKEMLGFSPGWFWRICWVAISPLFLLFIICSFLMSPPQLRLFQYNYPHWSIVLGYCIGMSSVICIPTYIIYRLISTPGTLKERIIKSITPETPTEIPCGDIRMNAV

This experiment has as its target T1, 5-HT transporter (Rattus norvegicus, UniProt P31652).
T1 construct: from tissue; host or cells: rat brain (medulla and pons), synaptosomes, P2 fraction
As to the kind of experiment: 5-HT uptake inhibition, synaptosomes from rat brain (medulla and pons). The experiment is classed as biochemical. The text has this:
b) Method for Determining Noradrenalin and 5-HT Uptake Inhibition:
Synaptosomes from rat brain regions are freshly isolated for in vitro studies, as described in the publication “The isolation of nerve endings from brain” by E. G. Gray and V. P. Whittaker, J. Anatomy 96, pages 79-88, 1962. The corresponding literature description is hereby introduced as a reference and is deemed to be part of the disclosure.
The tissue (hypothalamus for the determination of noradrenalin uptake inhibition and medulla and pons for the determination of 5-HT uptake inhibition) is homogenised in ice-cooled 0.32 M sucrose (100 mg of tissue/1 mL) in a glass homogeniser with Teflon pestle using five complete up and down strokes at 840 revolutions/minute.
The homogenate is centrifuged at 4° C. for 10 minutes at 1000 g. After subsequent centrifugation at 17000 g for 55 minutes, the synaptosomes (P2 fraction) are obtained, which are resuspended in 0.32 M […] (0.5 mL/100 mg of original weight).
The particular uptake is measured in a 96-well microtitre plate. The volume is 250 μL and the incubation proceeds at room temperature (approx. 20-25° C.) under an O2 atmosphere.
The incubation time is 7.5 minutes for [^3H]-NA and 5 minutes for [^3H]-5-HT. The 96 samples are then filtered through a Unifilter GF/B® microtitre plate (Packard) and washed with 200 mL of incubated buffer using a “Brabdel MPXRI-96T Cell-Harvester”. The Unifilter GF/B plate is dried for 1 hour at 55° C. The plate is then sealed with a Back Seal® (Packard) and 35 μL of scintillation fluid are added per well (Ultima Gold®, Packard). After sealing with a top Seal® (Packard) and establishing an equilibrium (around 5 hours), radioactivity is determined in a “Trilux 1450 Microbeta” (Wallac).
The quantity of protein used in the above determination corresponds to the values known from the literature, as for example described in “Protein measurement with the folin phenol reagent”, Lowry et al., J. Biol. Chem., 193, 265-275, 1951.
A detailed description of the method may additionally be found in the literature, for example in M. Ch. Frink, H.-H. Hennies, W. Engelberger, M. Haurand and B. Wilffert (1996) Arzneim.-Forsch./Drug Res. 46 (III), 11, 1029-1036.
The following characteristics were determined for the NA or 5-HT transporter: […]
As to `O=C(NCc1ccc(C(F)(F)F)c(F)c1)c1noc2c1CN(S(=O)(=O)c1ccccc1)CC2` [Example 113, 5-benzenesulfonyl-4,5,6,7-tetrahydro-isoxazolo[4,5-c]pyridine-3-carboxylic acid 3-fluoro-4-trifluoromethyl-benzyl amide], the inhibition at 10 µM was 83%.

Consider `C#CCNC(=O)c1noc2c1CN(C(=O)c1cccc(C)c1)CC2` [Example 108, 5-(3-methyl-benzoyl)-4,5,6,7-tetrahydro-isoxazolo[4,5-c]pyridine-3-carboxylic acid prop-2-ynyl amide], for which 10 µM produced 88% inhibition.

For the compound `CCCCOc1ccc(NC(=O)N2CCc3onc(C(=O)NCCOC)c3C2)cc1` [Example 7, 6,7-dihydro-4H-isoxazolo[4,5-c]pyridine-3,5-dicarboxylic acid 5-[(4-butoxy-phenyl) amide] 3-[(2-methoxy-ethyl) amide]], the “5-HT uptake (rat), 10 μM, % inhibition” value is 44%.

With `CCCCC(CC)CNC(=O)c1noc2c1CN(S(=O)(=O)c1cccc(C(F)(F)F)c1)CC2` (stereo not drawn) [Example 73], the “5-HT uptake (rat), 10 μM, % inhibition” value is given as 63%.

For `CCOc1ccc(NC(=O)N2CCc3onc(C(=O)NCc4ccc(F)cc4)c3C2)cc1` [Example 21, 6,7-dihydro-4H-isoxazolo[4,5-c]pyridine-3,5-dicarboxylic acid 5-[(4-ethoxy-phenyl) amide] 3-(4-fluorobenzyl amide)], the “5-HT uptake (rat), 10 μM, % inhibition” value came out at 56%.

`C=CCCC(=O)N1CCc2onc(C(=O)NCC3CC3)c2C1` [Example 66, 5-Pent-4-enoyl-4,5,6,7-tetrahydro-isoxazolo[4,5-c]pyridine-3-carboxylic acid cyclopropylmethyl amide] gave an inhibition at 10 µM of 62%.

The compound `O=C(NC(=S)N1CCc2onc(C(=O)NCCN3CCCC3)c2C1)c1ccccc1` [Example 128, 5-benzoylaminocarbothioyl-4,5,6,7-tetrahydro-isoxazolo[4,5-c]pyridine-3-carboxylic acid (2-pyrrolidin-1-yl-ethyl) amide] showed an inhibition at 10 µM of 80%.

`O=C(NCc1ccc(F)cc1)c1noc2c1CN(C(=O)c1ccc3ncccc3c1)CC2` [Example 124, 5-(quinoline-6-carbonyl)-4,5,6,7-tetrahydro-isoxazolo[4,5-c]pyridine-3-carboxylic acid 4-fluorobenzyl amide] had an inhibition at 10 µM of 65%.

For `COc1ccc(Cl)cc1NC(=O)N1CCc2onc(C(=O)NCCc3ccccc3)c2C1` [Example 22, 6,7-dihydro-4H-isoxazolo[4,5-c]pyridine-3,5-dicarboxylic acid 5-[(5-chloro-2-methoxyphenyl) amide] 3-(phenethyl amide)], the “5-HT uptake (rat), 10 μM, % inhibition” value is on record as 60%.

Regarding `O=C(NCCN1CCCC1)c1noc2c1CN(C(=O)c1ccc(Cl)nc1)CC2` [Example 77, 5-(6-chloro-pyridine-3-carbonyl)-4,5,6,7-tetrahydro-isoxazolo[4,5-c]pyridine-3-carboxylic acid (2-pyrrolidin-1-yl-ethyl) amide], at 10 µM the inhibition was 62%.

`O=C(NCc1cccc(Cl)c1Cl)c1noc2c1CN(S(=O)(=O)c1ccc(OC(F)(F)F)cc1)CC2` [Example 75, 5-(4-trifluoromethoxy-benzenesulfonyl)-4,5,6,7-tetrahydro-isoxazolo[4,5-c]pyridine-3-carboxylic acid 2,3-dichloro-benzyl amide] yielded an inhibition at 10 µM of 65%.

The compound `O=C(NCc1ccc(Cl)cc1Cl)c1noc2c1CN(S(=O)(=O)c1cccc(C(F)(F)F)c1)CC2` [Example 69, 5-(3-trifluoromethyl-benzenesulfonyl)-4,5,6,7-tetrahydro-isoxazolo[4,5-c]pyridine-3-carboxylic acid 2,4-dichloro-benzyl amide] returned an inhibition at 10 µM of 64%.

Regarding `Cc1ccc(NC(=O)N2CCc3onc(C(=O)NCc4ccc(F)cc4)c3C2)cc1[N+](=O)[O-]` [Example 14, 6,7-dihydro-4H-isoxazolo[4,5-c]pyridine-3,5-dicarboxylic acid 3-(4-fluorobenzyl amide) 5-[(4-methyl-3-nitro-phenyl) amide]], the “5-HT uptake (rat), 10 μM, % inhibition” value was determined as 53%.

Consider `CC(C)C(NC(=O)c1noc2c1CN(S(=O)(=O)c1cccc(C(F)(F)F)c1)CC2)C(=O)OC(C)(C)C` (stereo not drawn) [Example 67, 3-methyl-2-{[5-(3-trifluoromethyl-benzenesulfonyl)-4,5,6,7-tetrahydro-isoxazolo[4,5-c]pyridine-3-carbonyl]-amino}-butanoic acid tert-butyl ester], for which the inhibition at 10 µM came out at 73%.

`O=C(NCc1ccc(F)cc1F)c1noc2c1CN(S(=O)(=O)c1cc(Cl)ccc1Cl)CC2` [Example 112, 5-(2,5-dichloro-benzenesulfonyl)-4,5,6,7-tetrahydro-isoxazolo[4,5-c]pyridine-3-carboxylic acid 2,4-difluoro-benzyl amide] displayed an inhibition at 10 µM of 71%.

As for `Cc1ccc(CNC(=O)c2noc3c2CN(C(=S)Nc2c(F)c(F)c(F)c(F)c2F)CC3)o1` [Example 133, 5-pentafluorophenylthiocarbamoyl-4,5,6,7-tetrahydro-isoxazolo[4,5-c]pyridine-3-carboxylic acid (5-methyl-furan-2-ylmethyl) amide], the “5-HT uptake (rat), 10 μM, % inhibition” value stood at 63%.

For `O=C(c1noc2c1CN(S(=O)(=O)c1ccc(F)cc1)CC2)N1CCN(c2ncnc3sccc23)CC1` [Example 34], the “5-HT uptake (rat), 10 μM, % inhibition” value is on record as 74%.

On to `O=C(c1noc2c1CN(S(=O)(=O)c1ccc(F)cc1)CC2)N1CC=C(c2ccc(F)cc2)CC1` [Example 42, [5-(4-fluoro-benzenesulfonyl)-4,5,6,7-tetrahydro-isoxazolo[4,5-c]pyridin-3-yl]-[4-(4-fluorophenyl)-3,6-dihydro-2H-pyridin-1-yl]-methanone], for which the inhibition at 10 µM turned out to be 69%.

`C=CCOc1ccc(CN(Cc2ccco2)C(=O)c2noc3c2CN(S(=O)(=O)c2cccc(C(F)(F)F)c2)CC3)cc1` [Example 87, 5-(3-trifluoromethyl-benzenesulfonyl)-4,5,6,7-tetrahydro-isoxazolo[4,5-c]pyridine-3-carboxylic acid (4-allyloxy-benzyl)-furan-2-ylmethyl amide] showed an inhibition at 10 µM of 66%.

`COc1ccc(CC(=O)N2CCc3onc(C(=O)NCc4ccccc4)c3C2)cc1` [Example 79, 5-[2-(4-methoxyphenyl)-acetyl]-4,5,6,7-tetrahydro-isoxazolo[4,5-c]pyridine-3-carboxylic acid benzyl amide] showed an inhibition at 10 µM of 71%.

With `CC1C(NC(=O)c2noc3c2CN(S(=O)(=O)N(C)C)CC3)CC2CC1C2(C)C` (stereo not drawn) [Example 60, 5-dimethylsulfamoyl-4,5,6,7-tetrahydro-isoxazolo[4,5-c]pyridine-3-carboxylic acid (2,6,6-trimethyl-bicyclo[3.1.1]hept-3-yl) amide], the inhibition at 10 µM was 81%.

In the case of `C#CCNC(=O)c1noc2c1CN(C(=O)Nc1ccc(C)c([N+](=O)[O-])c1)CC2` [Example 16, 6,7-dihydro-4H-isoxazolo[4,5-c]pyridine-3,5-dicarboxylic acid 5-[(4-methyl-3-nitro-phenyl) amide]3-prop-2-ynyl amide], the “5-HT uptake (rat), 10 μM, % inhibition” value is 55%.

Take `COC(=O)CCCC(=O)N1CCc2onc(C(=O)NCc3ccc(F)cc3)c2C1` [Example 78, 5-[3-(4-fluoro-benzylcarbamoyl)-6,7-dihydro-4H-isoxazolo[4,5-c]pyridin-5-yl]-5-oxo-pentanoic acid methyl ester]: the inhibition at 10 µM amounted to 70%.

In the case of `CN(C)CCNC(=O)c1noc2c1CN(C(=O)c1cc(C(C)(C)C)nn1C)CC2` [Example 41, 5-(5-tert-butyl-2-methyl-2H-pyrazole-3-carbonyl)-4,5,6,7-tetrahydro-isoxazolo[4,5-c]pyridine-3-carboxylic acid (2-dimethylamino-ethyl) amide], 10 µM produced 76% inhibition.

The compound `O=C(NCc1ccc(F)cc1)c1noc2c1CN(C(=O)COc1ccccc1)CC2` [Example 54, 5-(2-phenoxy-acetyl)-4,5,6,7-tetrahydro-isoxazolo[4,5-c]pyridine-3-carboxylic acid 4-fluorobenzyl amide] had an inhibition at 10 µM of 84%.

The compound `CCCCOc1ccc(S(=O)(=O)N2CCc3onc(C(=O)NCC(C)C)c3C2)cc1` [Example 114, 5-(4-butoxy-benzenesulfonyl)-4,5,6,7-tetrahydro-isoxazolo[4,5-c]pyridine-3-carboxylic acid isobutyl amide] returned an inhibition at 10 µM of 85%.

`Cc1ccc(N2CCN(C(=O)c3noc4c3CN(S(=O)(=O)c3cc(Cl)ccc3Cl)CC4)CC2)c(C)c1` [Example 65, [5-(2,5-dichloro-benzenesulfonyl)-4,5,6,7-tetrahydro-isoxazolo[4,5-c]pyridin-3-yl]-[4-(2,4-dimethyl-phenyl)-piperazin-1-yl]-methanone] displayed an inhibition at 10 µM of 88%.

As a reminder, the inhibition is the percentage by which the read-out fell short of the control. The low end stands for a weak effect, the high end for a strong effect.
